Assay results published in patent US20030092691A1 (priority 2001, published 2003).

Experiment: Study of solubility of micronized progesterone in various oils (concentration at saturation)
Type: physicochemical
Details: in refined olive oil; one hour stirring at room temperature, filtered 0.45 μm
Protocol: The saturated solutions were then prepared as follows: The saturated solutions in each oil were maintained for one hour with stirring at room temperature, and were then filtered on a nylon filter syringe with a diameter of 25 mm, at 0.45 μm.

CONCENTRATION AT SATURATION: 19560 µg/mL
SMILES: CC(=O)[C@H]1CC[C@H]2[C@@H]3CCC4=CC(=O)CC[C@]4(C)[C@H]3CC[C@]12C [Micronized progesterone, progesterone]
